According to paper PMC9320028, “A Series of New Pyrrole Alkaloids with ALR2 Inhibitory Activities from the Sponge Stylissa massa” (Marine Drugs, 2022):
Several values for one entry are separate records, joined by “and”; a condition that tells them apart may be missing. Equal values may be shown once.

Experiments:
[1] = molecular target: T1, ALR2 (AKR1B1, aldose reductase) (Homo sapiens, UniProt P15121); assay: ALR2 enzyme assay (in vitro); type: biochemical; settings: for inhibition at 20 µM: read-out: ALR2 inhibition rate
T1 construct: The plasmid (pET28b, Novagen) containing the open reading frame of the human ALR2 gene; hexa-histidine (cleaved yes); made in house; host or cells: E. coli BL21 gold (DE3)
Experimental: (§1) For the AKR1B1 enzyme assay and SPR measurements, the protein was expressed and purified using the protocol related to the one reported previously. The plasmid (pET28b, Novagen) containing the open reading frame of the human ALR2 gene was kindly provided by Atagenix, Wuhan, Hubei, China. The E. coli strain BL21 gold (DE3) (Novagen) was used to express the hexa-histidine tagged protein after induction with IPTG (Roth) for 16 h at 293 K. The pellet from a 4 L culture was resuspended in a buffer containing 20 mM Tris and 500 mM NaCl (pH 8.0) before being sonicated and centrifuged. A HiTrap chelating HP column (GE Healthcare) was loaded with the supernatant. After a short washing step with a low imidazole concentration, the fusion protein was eluted by applying a gradient of imidazole. The buffer was exchanged with 20mM Tris-HCl, 10 mM NaCl, 1mM EDTA, and the tag cleaved by thrombin (yuanyeBio-Technology Co. Ltd. Shanghai, China). A Hiprep DEAE FastFlow 16/10 column (GE Healthcare) was loaded with the remaining solution. A NaCl gradient was used to elute the ALR2 from the column.
In the first step of the polyol pathway, glucose reduction is accompanied by the conversation of NADPH to NADP, where only NADPH has an obvious spectral absorption around 340 nm and NADP has none. Thus, the decrease in OD340nm can represent the consumption of NADPH. Therefore, we detect the change of OD340nm before and after reaction to screen the effective ARIs or evaluate the AR activity; assays with epalrestat were used as positive controls. Briefly, the incubation system contains 10 µL ALR2 enzyme (20 µg/mL), 80 µL DL-glyceraldehyde (0.16 mmol/L) as the substrate, 1.0 mmol/L NADPH·4Na as a coenzyme, and 0.1 mol/L PBS (pH = 6.2). […] Then, the absorbance was measured using FlexStation 3 Reader (Molecular Devices, San Francisco, CA, USA) at 340 nm. The absorbance of wells treated with PBS and NADPH was considered as 100% (OD1) and the absorbance of wells treated with PBS and DL-glyceraldehyde was considered as 0% (OD2); the inhibitory rate was calculated by the formula ODcompounds − OD2/OD1 − OD2. […]

ALR2 = molecular target: T2, ALR2 (Homo sapiens, UniProt P15121); assay: Surface plasmon resonance (SPR) binding assay, Biacore T200; settings: ALR2 immobilized on CM5 chip, PBS-P+ buffer, room temperature; read-out: KD value (binding between ALR2 and compound, SPR)
T2 construct: The plasmid (pET28b, Novagen) containing the open reading frame of the human ALR2 gene; hexa-histidine (cleaved yes); made in house; host or cells: E. coli BL21 gold (DE3)
Experimental: as §1
SPR binding analysis methodology can be used to study molecular interactions. Herein, SPR was applied to measure the interactions between compounds 13/14 and ALR2. Initially, ALR2 was prepared in 10 mM sodium acetate (pH 5.0) and then immobilized covalently by an amine-coupling reaction on a CM5 sensor chip. […]

| SMILES | inhibition at 20 µM [1] [%] | IC50 ([1]; recombinant ALR2, DL-glyceraldehyde substrate, NADPH, PBS pH 6.2, 10 min at 25 °C, OD340nm, read-out: IC50 of ALR2 inhibitory activity) [µM] | Kd (ALR2) |
| --- | --- | --- | --- |
| NC1=NC(=O)/C(=C2/CCNC(=O)c3[nH]ccc32)N1 [Compound 14] | > 50 | 13.1 | 6.9 µM and 6.89 µM |
| NC1=NC(=O)/C(=C2\CCNC(=O)c3[nH]ccc32)N1 [Compound 13] | > 50 |  | 12.5 µM |
